The NIST ThermoML archive (doi:10.1016/j.jct.2009.08.009)

Assay: xn = mol fraction of the nth substance listed
Details: 101 kPa, Liquid; for viscosity: Capillary tube (Ostwald / Ubbelohde) method; for speed of sound: Sing-around technique in a fixed-path interferometer; for mass density: Vibrating tube method

CCOCCOCCO [3,6-dioxa-1-octanol] + CCCCCCCCO
Details	mass density [kg/m3]	speed of sound [m/s]	viscosity [mPa·s]
293.15 K, x1 = 0.0518	832.339	1364.1	7.468
293.15 K, x1 = 0.1011	839.204	1363.5	6.913
293.15 K, x1 = 0.1625	848.155	1363.1	6.159
293.15 K, x1 = 0.1944	853.018	1363.7	5.913
293.15 K, x1 = 0.2538	862.076	1364.5	5.872
293.15 K, x1 = 0.3165	872.254	1365.7	5.104
293.15 K, x1 = 0.3685	880.933	1370.8	4.837
293.15 K, x1 = 0.4975	904.111	1377.4	4.361
293.15 K, x1 = 0.6048	925.139	1387.7	4.08
293.15 K, x1 = 0.7202	949.653	1399.5	3.846
293.15 K, x1 = 0.8165	971.878	1415.1	3.739
293.15 K, x1 = 0.9144	996.047	1349.4	3.66
293.15 K, x1 = 1	–	–	3.626
298.15 K, x1 = 0.0518	828.835	1347.1	6.198
298.15 K, x1 = 0.1011	835.659	1346.5	6.03
298.15 K, x1 = 0.1625	844.559	1346.3	5.405
298.15 K, x1 = 0.1944	849.396	1346.7	5.188
298.15 K, x1 = 0.2538	858.398	1347.6	4.799
298.15 K, x1 = 0.3165	868.522	1348.9	4.489
298.15 K, x1 = 0.3685	877.154	1354.1	4.279
298.15 K, x1 = 0.4975	900.211	1360.7	3.918
298.15 K, x1 = 0.6048	921.137	1370.9	3.612
298.15 K, x1 = 0.7202	945.535	1382.7	3.431
298.15 K, x1 = 0.8165	991.74	1398.2	3.328
298.15 K, x1 = 0.9144	938.234	1332.2	3.277
298.15 K, x1 = 1	–	–	3.278
303.15 K, x1 = 0.0518	825.317	1330.3	5.429
303.15 K, x1 = 0.1011	832.097	1329.8	5.005
303.15 K, x1 = 0.1625	840.951	1329.5	4.636
303.15 K, x1 = 0.1944	845.762	1329.6	4.404
303.15 K, x1 = 0.2538	854.713	1330.1	4.295
303.15 K, x1 = 0.3165	864.78	1330.9	3.845
303.15 K, x1 = 0.3685	873.364	1332.3	3.67
303.15 K, x1 = 0.4975	896.3	1337.5	3.396
303.15 K, x1 = 0.6048	917.122	1343.9	3.141
303.15 K, x1 = 0.7202	941.409	1354.3	3.045
303.15 K, x1 = 0.8165	963.444	1381.3	2.904
303.15 K, x1 = 0.9144	987.41	1315	2.848
303.15 K, x1 = 1	–	–	2.862
308.15 K, x1 = 0.0518	821.777	1313.7	4.542
308.15 K, x1 = 0.1011	828.522	1313.2	4.219
308.15 K, x1 = 0.1625	837.324	1312.9	3.897
308.15 K, x1 = 0.1944	842.106	1312.9	3.781
308.15 K, x1 = 0.2538	851.006	1313.5	3.548
308.15 K, x1 = 0.3165	861.019	1314.5	3.327
308.15 K, x1 = 0.3685	869.558	1315.7	3.169
308.15 K, x1 = 0.4975	892.371	1320.9	2.928
308.15 K, x1 = 0.6048	913.092	1327.4	2.721
308.15 K, x1 = 0.7202	937.267	1337.7	2.6
308.15 K, x1 = 0.8165	959.204	1349.3	2.532
308.15 K, x1 = 0.9144	983.069	1364.5	2.493
308.15 K, x1 = 1	–	–	2.507

CCOCCOCCO [3,6-dioxa-1-octanol] + CCCCCCO
Details	mass density [kg/m3]	speed of sound [m/s]	viscosity [mPa·s]
293.15 K, x1 = 0.0515	828.146	1322.4	4.442
293.15 K, x1 = 0.1039	837.651	1324.9	4.111
293.15 K, x1 = 0.1456	845.454	1327.5	3.932
293.15 K, x1 = 0.2078	857.041	1331.1	3.714
293.15 K, x1 = 0.2501	864.989	1334.2	3.614
293.15 K, x1 = 0.3127	876.967	1338.7	3.482
293.15 K, x1 = 0.3517	884.493	1342.1	3.423
293.15 K, x1 = 0.5241	918.471	1358.7	3.279
293.15 K, x1 = 0.6227	938.481	1370.5	3.308
293.15 K, x1 = 0.7217	959.157	1384.3	3.352
293.15 K, x1 = 0.8227	980.826	1400.4	3.384
293.15 K, x1 = 0.915	1000.91	1416.4	3.588
293.15 K, x1 = 1	–	–	3.626
298.15 K, x1 = 0.0515	824.518	1305.4	3.906
298.15 K, x1 = 0.1039	833.976	1308	3.655
298.15 K, x1 = 0.1456	841.738	1310.6	3.495
298.15 K, x1 = 0.2078	853.267	1314.3	3.352
298.15 K, x1 = 0.2501	861.179	1317.4	3.237
298.15 K, x1 = 0.3127	873.107	1322	3.121
298.15 K, x1 = 0.3517	880.591	1325.3	3.066
298.15 K, x1 = 0.5241	914.427	1341.9	2.951
298.15 K, x1 = 0.6227	934.36	1353.8	2.965
298.15 K, x1 = 0.7217	954.955	1367.5	3.009
298.15 K, x1 = 0.8227	976.55	1383.5	3.054
298.15 K, x1 = 0.915	996.56	1399.5	3.235
298.15 K, x1 = 1	–	–	3.278
303.15 K, x1 = 0.0515	820.874	1288.7	3.381
303.15 K, x1 = 0.1039	830.282	1291.3	3.154
303.15 K, x1 = 0.1456	838.004	1293.9	3.026
303.15 K, x1 = 0.2078	849.482	1297.6	2.879
303.15 K, x1 = 0.2501	857.352	1300.7	2.809
303.15 K, x1 = 0.3127	869.225	1305.3	2.726
303.15 K, x1 = 0.3517	876.678	1308.7	2.682
303.15 K, x1 = 0.5241	910.37	1325.3	2.584
303.15 K, x1 = 0.6227	930.226	1337.1	2.605
303.15 K, x1 = 0.7217	950.745	1350.8	2.647
303.15 K, x1 = 0.8227	972.261	1366.7	2.693
303.15 K, x1 = 0.915	992.202	1382.6	2.801
303.15 K, x1 = 1	–	–	2.862
308.15 K, x1 = 0.0515	817.198	1272.1	2.901
308.15 K, x1 = 0.1039	826.564	1274.7	2.72
308.15 K, x1 = 0.1456	834.246	1277.3	2.631
308.15 K, x1 = 0.2078	845.669	1280	2.503
308.15 K, x1 = 0.2501	853.504	1284.2	2.443
308.15 K, x1 = 0.3127	865.322	1288.8	2.374
308.15 K, x1 = 0.3517	872.742	1292.1	2.342
308.15 K, x1 = 0.5241	906.299	1308.8	2.266
308.15 K, x1 = 0.6227	926.073	1320.6	2.278
308.15 K, x1 = 0.7217	946.516	1334.2	2.297
308.15 K, x1 = 0.8227	967.953	1350	2.349
308.15 K, x1 = 0.915	987.826	1365.8	2.445
308.15 K, x1 = 1	–	–	2.507

CCCCCCCCCCO [decan-1-ol] + CCOCCOCCO
x2 = 0
Details	viscosity [mPa·s]
293.15 K	13.04
298.15 K	11.19
303.15 K	9.066
308.15 K	7.459

CCCCCCO [hexan-1-ol] + CCOCCOCCO
x2 = 0
Details	viscosity [mPa·s]
293.15 K	4.963
298.15 K	4.439
303.15 K	3.675
308.15 K	3.108

CCCCCCCCO [octan-1-ol] + CCOCCOCCO
x2 = 0
Details	viscosity [mPa·s]
293.15 K	8.309
298.15 K	7.143
303.15 K	5.969
308.15 K	5.009
